Key:
VZV polymerase = VZV polymerase (Varicella-zoster virus, UniProt P09252); test: VZV polymerase assay (SPA); assay type: biochemical
Procedure: [Worded in the source for another target; used here, by the source, with some conditions changed.] The HCMV polymerase assay is performed using a scintillation proximity assay (SPA) as described in several references, such as N.D. Cook, et al., Pharmaceutical Manufacturing International, pages 49-53 (1992), K Takeuchi, Laboratory Practice, September issue (1992); U.S. Pat. No. 4,568,649 (1986); which are incorporated by reference herein. Reactions are performed in 96-well plates. The assay is conducted in 100 μl volume with 5.4 mM HEPES (pH 7.5), 11.7 mM KCl, 4.5 mM MgCl2, 0.36 mg/ml BSA, and 90 nM ^3H-dTTP. Assays are run with and without CHAPS, (3-[(3-Cholamidopropyl)-dimethylammonio]-1-propane-sulfonate) at a final concentration of 2 mM. HCMV polymerase is diluted in enzyme dilution buffer containing 50% glycerol, 250 mM NaCl, 10 mM HEPES (pH 7.5), […] BSA, and 0.01% sodium azide. The HCMV polymerase, which is expressed in recombinant baculovirus-infected SF-9 cells and purified according to literature procedures, is added at 10% (or 10 μl) of the final reaction volume, i.e., 100 μl. Compounds are diluted in 50% DMSO and 10 μl are added to each well. […] Plates are incubated 10 min. at 37° C., then equilibrated to room temperature, and counted on a Packard Topcount. Linear regressions are performed and IC50's are calculated using computer software. […]
(§1) All results are listed as Polymerase IC50(μM) values. In Table 1, the term “n.d.” refers to activity data not determined.

HCMV polymerase = target: T1, HCMV polymerase (Human cytomegalovirus, UniProt P08546); test: HCMV polymerase scintillation proximity assay; assay type: biochemical
T1 construct: made in house; host or cells: SF-9 insect cells (recombinant baculovirus)
T1 sequence (P08546 whole entry): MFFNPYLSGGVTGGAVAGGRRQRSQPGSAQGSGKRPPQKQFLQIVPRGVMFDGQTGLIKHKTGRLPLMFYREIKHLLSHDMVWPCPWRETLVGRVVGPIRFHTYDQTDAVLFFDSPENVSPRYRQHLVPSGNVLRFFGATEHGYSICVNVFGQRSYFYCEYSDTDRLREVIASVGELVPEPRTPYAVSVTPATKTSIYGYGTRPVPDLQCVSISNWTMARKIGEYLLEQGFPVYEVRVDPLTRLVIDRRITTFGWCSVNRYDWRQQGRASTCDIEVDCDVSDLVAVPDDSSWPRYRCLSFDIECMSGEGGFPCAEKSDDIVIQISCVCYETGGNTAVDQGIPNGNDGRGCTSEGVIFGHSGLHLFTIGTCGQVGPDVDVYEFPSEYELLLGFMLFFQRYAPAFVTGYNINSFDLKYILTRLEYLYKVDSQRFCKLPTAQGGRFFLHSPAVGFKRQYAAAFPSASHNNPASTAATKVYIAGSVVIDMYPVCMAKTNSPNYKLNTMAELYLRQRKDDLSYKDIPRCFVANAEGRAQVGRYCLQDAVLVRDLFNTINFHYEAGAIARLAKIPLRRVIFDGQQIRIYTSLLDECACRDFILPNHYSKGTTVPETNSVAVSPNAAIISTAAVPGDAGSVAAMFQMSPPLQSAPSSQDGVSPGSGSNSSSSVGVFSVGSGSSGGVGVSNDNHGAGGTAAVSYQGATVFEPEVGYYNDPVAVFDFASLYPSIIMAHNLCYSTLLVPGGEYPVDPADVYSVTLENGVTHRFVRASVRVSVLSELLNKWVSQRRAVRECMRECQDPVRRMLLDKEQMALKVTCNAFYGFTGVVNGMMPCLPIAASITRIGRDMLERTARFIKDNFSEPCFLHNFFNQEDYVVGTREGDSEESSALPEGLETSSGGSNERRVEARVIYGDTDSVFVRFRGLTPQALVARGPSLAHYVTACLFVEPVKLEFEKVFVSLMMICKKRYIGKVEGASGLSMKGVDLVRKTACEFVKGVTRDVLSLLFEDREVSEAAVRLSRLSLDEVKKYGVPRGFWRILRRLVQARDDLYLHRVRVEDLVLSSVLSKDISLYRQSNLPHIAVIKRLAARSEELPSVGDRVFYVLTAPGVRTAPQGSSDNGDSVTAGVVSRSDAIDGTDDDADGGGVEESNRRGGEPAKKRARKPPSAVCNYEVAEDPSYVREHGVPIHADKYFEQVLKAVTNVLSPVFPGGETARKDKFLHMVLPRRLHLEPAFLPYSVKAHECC
Procedure: (§2) The HCMV polymerase assay is performed using a scintillation proximity assay (SPA) as described in several references, such as N.D. Cook, et al., Pharmaceutical Manufacturing International, pages 49-53 (1992), K Takeuchi, Laboratory Practice, September issue (1992); U.S. Pat. No. 4,568,649 (1986); which are incorporated by reference herein. Reactions are performed in 96-well plates. The assay is conducted in 100 μl volume with 5.4 mM HEPES (pH 7.5), 11.7 mM KCl, 4.5 mM MgCl2, 0.36 mg/ml BSA, and 90 nM ^3H-dTTP. Assays are run with and without CHAPS, (3-[(3-Cholamidopropyl)-dimethylammonio]-1-propane-sulfonate) at a final concentration of 2 mM. HCMV polymerase is diluted in enzyme dilution buffer containing 50% glycerol, 250 mM NaCl, 10 mM HEPES (pH 7.5), […] BSA, and 0.01% sodium azide. The HCMV polymerase, which is expressed in recombinant baculovirus-infected SF-9 cells and purified according to literature procedures, is added at 10% (or 10 μl) of the final reaction volume, i.e., 100 μl. Compounds are diluted in 50% DMSO and 10 μl are added to each well. Control wells contain an equivalent concentration of DMSO. Unless noted otherwise, reactions are initiated via the addition of 6 nM biotinylated poly(dA)-oligo(dT) template/primer to reaction mixtures containing the enzyme, substrate, and compounds of interest. Plates are incubated in a 25° C. or 37° C. H2O bath and terminated via the addition of 40 μl/reaction of 0.5 M EDTA (pH 8) per well. Reactions are terminated within the time-frame during which substrate incorporation is linear and varied depending upon the enzyme and conditions used, Le., 30 min. for HCMV polymerase. Ten (10) μl of streptavidin-SPA beads (20 mg/ml in PBS/10% glycerol) are added following termination of the reaction. Plates are incubated 10 min. at 37° C., then equilibrated to room temperature, and counted on a Packard Topcount. Linear regressions are performed and IC50's are calculated using computer software.
(§3) A modified version of the above HCMV polymerase assay is performed as described above, but with the following changes: Compounds are diluted in 100% DMSO until final dilution into assay buffer. In the previous assay, compounds are diluted in 50% DMSO. 4.5 mM Dithiothreitol (DTT) is added to the polymerase buffer.
as §1

HSV polymerase = HSV polymerase (Human herpesvirus 1, UniProt P04293); test: HSV polymerase assay (SPA); assay type: biochemical
Chain of HSV polymerase (P04293 whole entry): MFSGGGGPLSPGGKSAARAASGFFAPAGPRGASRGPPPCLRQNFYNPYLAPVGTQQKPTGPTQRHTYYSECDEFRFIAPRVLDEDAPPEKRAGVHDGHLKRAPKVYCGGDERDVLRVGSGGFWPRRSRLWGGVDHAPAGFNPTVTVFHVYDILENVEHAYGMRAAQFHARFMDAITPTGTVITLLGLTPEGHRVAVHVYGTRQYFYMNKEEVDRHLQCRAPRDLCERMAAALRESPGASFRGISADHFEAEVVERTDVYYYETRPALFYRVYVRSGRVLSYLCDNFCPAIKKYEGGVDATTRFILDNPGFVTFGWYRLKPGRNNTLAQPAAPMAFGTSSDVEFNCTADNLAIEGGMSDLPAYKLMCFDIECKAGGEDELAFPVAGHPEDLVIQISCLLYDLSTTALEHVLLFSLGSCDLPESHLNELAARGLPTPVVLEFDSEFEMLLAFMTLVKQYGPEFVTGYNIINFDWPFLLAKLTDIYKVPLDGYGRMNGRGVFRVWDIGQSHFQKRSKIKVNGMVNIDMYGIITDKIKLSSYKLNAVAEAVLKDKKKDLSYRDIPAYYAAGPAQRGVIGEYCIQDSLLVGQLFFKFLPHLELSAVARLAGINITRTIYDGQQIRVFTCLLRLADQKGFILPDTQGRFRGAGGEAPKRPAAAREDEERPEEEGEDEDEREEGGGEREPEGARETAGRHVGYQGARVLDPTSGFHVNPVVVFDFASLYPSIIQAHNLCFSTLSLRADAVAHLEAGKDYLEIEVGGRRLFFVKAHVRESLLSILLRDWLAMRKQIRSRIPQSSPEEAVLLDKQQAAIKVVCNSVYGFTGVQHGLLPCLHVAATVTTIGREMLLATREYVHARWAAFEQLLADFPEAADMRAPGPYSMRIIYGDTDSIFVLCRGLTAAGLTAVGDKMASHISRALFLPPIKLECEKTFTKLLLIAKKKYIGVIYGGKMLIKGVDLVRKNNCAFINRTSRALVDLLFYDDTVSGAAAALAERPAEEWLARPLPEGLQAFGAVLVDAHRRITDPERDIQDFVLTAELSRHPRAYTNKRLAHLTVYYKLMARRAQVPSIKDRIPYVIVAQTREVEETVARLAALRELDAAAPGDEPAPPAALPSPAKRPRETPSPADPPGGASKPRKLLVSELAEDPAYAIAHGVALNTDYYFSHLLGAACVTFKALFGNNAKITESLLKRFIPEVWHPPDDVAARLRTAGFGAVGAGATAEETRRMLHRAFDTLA
Procedure: [Worded in the source for another target; used here, by the source, with some conditions changed.] as §2, §3, §1

Chain of VZV polymerase (P09252 whole entry): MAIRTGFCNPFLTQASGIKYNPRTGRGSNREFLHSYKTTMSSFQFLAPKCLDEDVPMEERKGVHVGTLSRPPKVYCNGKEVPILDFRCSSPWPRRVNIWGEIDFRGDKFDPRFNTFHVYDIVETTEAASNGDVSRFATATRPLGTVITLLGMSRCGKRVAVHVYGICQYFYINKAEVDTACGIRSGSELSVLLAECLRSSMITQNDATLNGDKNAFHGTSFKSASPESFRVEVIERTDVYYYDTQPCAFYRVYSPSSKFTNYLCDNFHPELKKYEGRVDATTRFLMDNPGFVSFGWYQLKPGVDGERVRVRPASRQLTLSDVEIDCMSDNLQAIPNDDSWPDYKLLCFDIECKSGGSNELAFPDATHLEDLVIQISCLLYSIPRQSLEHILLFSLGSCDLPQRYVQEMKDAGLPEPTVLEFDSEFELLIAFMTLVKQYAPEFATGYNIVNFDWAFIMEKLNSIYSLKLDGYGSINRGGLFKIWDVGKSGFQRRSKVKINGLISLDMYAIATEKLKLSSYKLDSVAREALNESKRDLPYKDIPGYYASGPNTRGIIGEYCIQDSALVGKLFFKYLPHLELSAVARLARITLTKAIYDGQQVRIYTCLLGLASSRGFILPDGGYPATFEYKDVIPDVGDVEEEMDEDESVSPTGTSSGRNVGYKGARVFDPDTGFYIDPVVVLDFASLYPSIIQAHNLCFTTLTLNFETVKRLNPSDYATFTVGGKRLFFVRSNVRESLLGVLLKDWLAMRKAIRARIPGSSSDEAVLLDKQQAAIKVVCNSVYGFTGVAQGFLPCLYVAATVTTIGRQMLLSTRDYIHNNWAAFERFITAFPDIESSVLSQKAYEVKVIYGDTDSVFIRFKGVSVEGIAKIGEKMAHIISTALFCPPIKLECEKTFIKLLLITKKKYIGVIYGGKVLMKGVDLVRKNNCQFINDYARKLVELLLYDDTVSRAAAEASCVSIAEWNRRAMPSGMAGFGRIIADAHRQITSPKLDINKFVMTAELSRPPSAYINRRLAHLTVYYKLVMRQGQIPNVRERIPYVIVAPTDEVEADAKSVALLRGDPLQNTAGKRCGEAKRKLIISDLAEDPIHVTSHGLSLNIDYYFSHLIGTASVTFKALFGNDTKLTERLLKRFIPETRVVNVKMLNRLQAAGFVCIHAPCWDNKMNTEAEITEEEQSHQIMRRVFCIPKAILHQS

| SMILES | IC50 (VZV polymerase) [nM] | IC50 (HCMV polymerase) [nM] | IC50 (HSV polymerase) [nM] | melting point [°C] |
| --- | --- | --- | --- | --- |
| Cn1cc(C(=O)NCc2ccc(Cl)cc2)c(=O)c2cc(CN3CCOC[C@@H]3Cc3ccccc3)sc21 [Example 1, 2-(((3S)-3-Benzylmorpholin-4-yl)methyl)-N-(4-chlorobenzyl)-7-methyl-4-oxo-4,7-dihydrothieno[2,3-b]pyridine-5-carboxamide] | 420 | 450 | 1000 | – |
| Cn1cc(C(=O)NCc2ccc(Cl)cc2)c(=O)c2cc(CN3CCOC[C@@H]3[C@H](O)c3ccccc3)sc21 [Example 14, N-(4-Chlorobenzyl)-2-(((3R)-3-((R)-hydroxy(phenyl)methyl)morpholin-4-yl)-methyl)-7-methyl-4-oxo-4,7-dihydrothieno[2,3-b]pyridine-5-carboxamide] | – | 1270 | 2970 | 171 to 172 |
| Cn1cc(C(=O)NCc2ccc(Cl)cc2)c(=O)c2cc(CN3CCC[C@@H]3[C@@H](O)c3ccccc3)sc21 (relative stereo) [Example 2, N-(4-Chlorobenzyl)-2-(((2R*2)-(S*)-hydroxy(phenyl)methyl)pyrrolidin-1-yl)methyl)-7-methyl-4-oxo-4,7-dihydrothieno[2,3-b]pyridine-5-carboxamide] | 210 | 120 | 720 | 158 to 162 |
| Cn1cc(C(=O)NCc2ccc(Cl)cc2)c(=O)c2cc(CN3CCOC[C@@H]3[C@@H](O)c3ccccc3)sc21 [Example 15, N-(4-Chlorobenzyl)-2-(((3R)-3-((S)hydroxy(phenyl)methyl)morpholin-4-yl)-methyl)-7-methyl-4-oxo-4,7-dihydrothieno[2,3-b]pyridine-5-carboxamide] | – | 24 | 22 | 129 to 134 |

Reference: patent publication US6831081B2, “4-Oxo-4,7-dihydrothieno[2,3-b]pyridine-5-carboxamides as antiviral agents” (Pharmacia & Upjohn, priority 2002, dated 2004)
